# Results reported in US10568819B2, “Skin enhancing compositions and methods” (Sytheon Limited, priority 2016, dated 2020).
# Legend:
# [1] = test system: Keratinocytes; experiment: UVA- and UVB-induced formation of immediate CPDs (iCPDs) in keratinocytes; type: cell-based; conditions: 25 μg/ml
# Experimental: (§1) Given the significance of CPDs in skin aging and damage, a study was undertaken to determine whether compounds of the present invention have the ability to directly protect the genome of skin cells from the mutagenic effect of UV light as evidenced by CPDs inhibition. The study was conducted in accordance with the method described by Mitchell et. al. [Mitchell, D L, The relative cytotoxicity of (6-4) photoproducts and cyclobutane dimers in mammalian cells. Photochem Photobiol, 48(1):51-57, 1988)] pursuant to which UVA- and UVB-induced formation of immediate CPDs (iCPDs) were determined.
# [2] = test system: COL3A1; experiment: DNA microarray gene expression, COL3A1; type: cell-based
# Text: (§2) In light of the efficacy of the aryl alkanones ire addressing many of the molecular/biomolecular processes damaged by UV exposure, a study was undertaken to assess whether these compounds would also be effective in addressing symptoms associated with non-UV induced skin aging including chronological aging as well as disease conditions that likewise adversely affect skin processes. The studies conducted involves DNA microarray, PCR array, cell culture, enzyme inhibitory activity.
# [3] = target: T1, MMP-1 enzyme (Homo sapiens, UniProt P03956); experiment: MMP-1 inhibition; type: biochemical; conditions: read-out: Inhibitory concentration (IC50), MMP-1
# T1 construct: purchased Anaspec
# Experimental: Another study was conducted in which the elastin and MMP activity of Compound 1 was evaluated. The methodology for the study of MMP-1 and MMP-3 activity was as follows: • A 0.1 g sample of Compound 1 was dissolved in 1 ml DMSO, then it was diluted 100× with Tris buffer (50 mM Iris pH 7.5, 150 mM NaCl, 2 mM CaCl2, 5μ ZnO4, 0.01% Brij-35) to make a stock solution. For the analysis, different concentrations of Compound 1 were used to determine the IC50. The sample and 100 ng/ml MMP-1 enzyme (Anaspec) or MMP-3 enzyme (Anaspec) were incubated at 37° C. for 10 minutes before the addition of 2.25 μM PEPDAB008 substrate (Biozyme). The fluorescence signal was monitored at excitation of 485 nm and emission of 530 nm.
# [4] = test system: TNS2; experiment: DNA microarray gene expression, TNS2; type: cell-based
# Text: as §2
# [5] = test system: COL6A3; experiment: DNA microarray gene expression, COL6A3; type: cell-based
# Text: as §2
# [6] = test system: COL5A1; experiment: DNA microarray gene expression, COL5A1; type: cell-based
# Text: as §2
# [7] = test system: ITGA4; experiment: DNA microarray gene expression, ITGA4; type: cell-based
# Text: as §2
# [8] = test system: LAMC1; experiment: PCR array gene expression, LAMC1; type: cell-based
# Text: as §2
# [9] = test system: Fibroblasts; experiment: UVA- and UVB-induced formation of immediate CPDs (iCPDs) in fibroblasts; type: cell-based; conditions: UVA, 25 μg/ml
# Experimental: as §1
# T1 sequence (P03956 100-469, species assumed): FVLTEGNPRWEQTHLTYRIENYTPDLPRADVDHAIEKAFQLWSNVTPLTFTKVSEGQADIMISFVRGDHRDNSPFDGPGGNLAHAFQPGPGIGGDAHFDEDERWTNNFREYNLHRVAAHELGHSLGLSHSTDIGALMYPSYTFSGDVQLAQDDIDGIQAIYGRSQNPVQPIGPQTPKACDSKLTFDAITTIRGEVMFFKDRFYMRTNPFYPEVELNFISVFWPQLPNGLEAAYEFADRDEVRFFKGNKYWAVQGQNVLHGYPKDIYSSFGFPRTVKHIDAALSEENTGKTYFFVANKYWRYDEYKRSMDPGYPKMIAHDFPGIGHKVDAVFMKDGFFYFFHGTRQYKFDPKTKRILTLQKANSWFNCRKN
smiles,measurement,setting,value
"COc1cc(CC(C(C)=O)C(C)=O)ccc1O [Compound 1, Acetyl Zingerone]",UVA/% Reduction in iCPDs vs. Control,[1]; UVA,73%
same,UVB/% Reduction iCPDs vs. Control,[1]; UVB,44%
same,"Microarray, COL3A1 gene expression",[2],+1.7
same,IC50,[3],4.19 mM
same,"Microarray, TNS2 gene expression",[4],+1.7
same,"Microarray, COL6A3 gene expression",[5],+1.8
same,"Microarray, COL5A1 gene expression",[6],+4.1
same,"Microarray, ITGA4 gene expression",[7],+1.6
same,"PCR array, LAMC1 gene expression",[8],+2.0
same,UVA/% Reduction in iCPDs vs. Control,[9],45%
